Source: US11981626B1, “Compound embodiments for hydrogen sulfide production and methods of making and using the same” (University of Oregon, priority 2018, dated 2024)

Experiments:
[1] = system: macrophage RAW 264.7 cells; assay: LPS-induced NO2− formation in macrophage RAW 264.7 cells (Griess); assay type: cell-based; conditions: 25 μM pretreatment 6 hours, LPS 1.0 μg/mL 18 hours
Method: In this example, the ability of embodiments of the disclosed donor compound to provide anti-inflammatory activity was evaluated. To investigate the potential protective effects of the developed donors, pretreated macrophage RAW 264.7 cells were pretreated with γ-KetoTCM-1 (25 μM) for 6 hours, followed by an 18-hour incubation with lipopolysaccharide (LPS, 1.0 μg/mL) to induce an inflammatory response. This response is accompanied by an increase in NO production, which was monitored by measuring nitrite (NO2−) accumulation. To determine whether the observed effects were due to COS/H2S release, control experiments with γ-KetoTCM-3, γ-KetoCM-1, and GYY4137 under the identical condition also were performed. GYY4137 was used as a positive control because it has shown anti-inflammatory effects previously, and because it generates a slow, continuous release of H2S.
In this example, macrophage RAW 264.7 cells were seeded in a 24-well plate (5×10^5 cells/well) containing 0.50 mL of DMEM and incubated at 37° C. under 5% CO2 for 24 hours. The confluent cells were washed with PBS and incubated with either γ-KetoTCM-1, γ-KetoTCM-3, γ-KetoCM-1, or GYY4137 (25.0 μM) at 37° C. for 6 hours. Compounds were then removed by washing cells with PBS and these pretreated cells were incubated in FBS-free DMEM containing LPS (1.00 μg/mL) for 18 hours. NO2− levels were measured by using a Griess Reagent Kit.

[2] = COS/H2S release monitored by PNA formation (UV-Vis) in PBS containing CA; assay type: physicochemical; conditions: for half-life at 50 μM: PBS containing carbonic anhydrase (CA); for half-life at 50 μM / kobs (COS/H2S releasing kinetics): 37° C.; for kobs (COS/H2S releasing kinetics): CA 25 μg/mL, 50 μM; for krel: relative to γ-KetoTCM-1 at pH 7.4
Method: To investigate COS/H2S release from donor compound embodiments, γ-KetoTCM-1 (50 μM) was incubated in PBS (pH 7.4, 10 mM) containing CA (25 μg/mL) and H2S release was detected by monitoring para-nitroaniline (PNA) formation at 37° C. In particular, a γ-KetoTCM-1 stock solution (15.0 μL, 10.0 mM in DMSO) was added to 3.00 mL of PBS (pH 6.00, 7.40 or 8.00, 10.0 mM) containing CA (25.0 μg/mL) in a quartz UV cuvette. The absorbance (250-500 nm) was measured and recorded by using Agilent Cary 100 or Cary 60 UV-Vis spectrometers at 37° C. kobs was then obtained by plotting the absorbance ratio of PNA and γ-KetoTCM-1 versus time and t1/2 was calculated by dividing In(2) by kobs.
In this example, pH effects on COS/H2S release were investigated by incubating γ-KetoTCM-1 (50 μM) in PBS (pH 6.0-8.0) and monitoring with a UV-Vis spectrometer. […] In particular, a γ-KetoTCM-1 stock solution (15.0 μL, 10.0 mM in DMSO) was added to 3.00 mL of PBS (pH 6.00, 10.0 mM) containing CA (25.0 μg/mL) in a 3-mL UV cuvette. The absorbance (250-500 nm) was measured and recorded at 37° C. kobs was then obtained by plotting the absorbance ratio of PNA and γ-KetoTCM-1 vs time.

HeLa cells = assay: H2S delivery in HeLa cells imaged with SF7-AM fluorescent probe; assay type: cell-based; conditions: 100 μM, 2 hours
Method: In this example, it was evaluated whether γ-KetoTCM-based donors can be activated to deliver H2S in cellular environments. SF7-AM, a cell-trappable H2S fluorescent probe, was used to monitor H2S accumulation from γ-KetoTCM-1 in HeLa cells. In the absence of γ-KetoTCM-1, no fluorescent signal from SF7-AM was observed, indicating negligible endogenous H2S (FIG. 9, left column, including the top and bottom images).
HeLa cells were plated in poly-D-lysine coated plates (MatTek) containing 2.00 mL of DMEM and incubated at 37° C. under 5% CO2 for 24 hours. The confluent cells were washed with PBS and then co-incubated with SF7-AM (5.00 μM) and NucBlue nuclear dye (2 drops) for 30 minutes. The cells were then washed with PBS and incubated with either γ-KetoTCM-1 (100 μM) or γ-KetoCM-1 (100 μM) alone for 2 hours. Prior to imaging, the cells were washed with PBS and bathed in 2.00 mL of PBS. Cell imaging was performed on a Leica DMi8 fluorescent microscope.

[3] = COS/H2S release monitored by PNA formation (UV-Vis) in PBS containing BSA and CA; assay type: physicochemical
Method: In this example, compound activation and subsequent COS/H2S release in PBS containing bovine serum albumin (BSA) was evaluated to mimic a complex biological environment. γ-KetoTCM-1 (50 μM) was incubated in PBS (pH 7.4, 10 mM) containing BSA (5 mg/mL) and CA (25 μg/mL) at 37° C. In particular, A γ-KetoTCM-1 stock solution (15.0 μl_, 10.0 mM in DMSO) was added to 3.00 mL of PBS (pH 7.40, 10.0 mM) containing BSA (5.00 mg/mL) and CA (25.0 μg/mL) in a quartz UV cuvette. The absorbance (250-500 nm) was measured and recorded by using an Agilent Cary 100 UV-Vis spectrometer at 37° C.

[4] = H2S production measured by methylene blue (MB) assay in PBS containing BSA and CA; assay type: physicochemical; conditions: 37° C.
Method: Using the same conditions, H2S production was measured at different time points using the MB assay (FIG. 5A, curve labeled with the “▾” symbol). The MB assay allows for H2S quantification from the reaction of H2S with N,N-dimethyl-p-phenylenediamine in the presence of FeCl3 and acid to produce methylene blue (MB, λmax=670). In the MB assay, a γ-KetoTCM-1 stock solution (100 μL, 10.0 mM in DMSO) was added to 20.0 mL of PBS (pH 7.40, 10.0 mM) containing BSA (5.00 mg/mL) and CA (25.0 μg/mL) in a 25-mL scintillation vial at 37° C. Next, 0.300 mL aliquots of the reaction mixture were transferred to UV cuvettes containing 0.300 mL of MB cocktail at different time points. The MB reaction mixture was incubated at room temperature for 1 hour and the precipitate was removed using syringe filters. The absorbance at 670 nm was then measured and was converted to H2S concentration by using the H2S calibration curve in FIG. 6. […] The MB solution was allowed to react with H2S for 1 hour before measuring the absorbance at 670 nm.
The linearity between these two methods was lost after 60 minutes due to the oxidation of H2S in the MB assay at extended incubation times (FIG. 5A). […] The absorbance at 670 nm was then measured and converted to H2S concentration by using the H2S calibration curve in FIG. 6. […]

[5] = Effects of cellular nucleophiles on COS/H2S release (PNA formation, UV-vis); assay type: physicochemical; conditions: PBS pH 7.4, Cys, NAC, Hcy, GSH, Lys, Ser, Gly, GSSG, 4-hour incubation, 37° C.
Method: To determine the effects of cellular nucleophiles on COS/H2S release, γ-KetoTCM-1 was incubated in […] PBS buffer (pH 7.4, 10 mM) containing (1) no cellular nucleophile (FIG. 4, bar 1); or 250 μM of Cys (FIG. 4, bar 2), 250 μM of N-acetyl cysteine (NAC) (FIG. 4, bar 3), 250 μM of homocysteine (Hcy) (FIG. 4, bar 4), 250 μM of GSH […] (FIG. 4, bar 5), 250 μM of lysine (Lys) (FIG. 4, bar 6), 250 μM of serine (Ser) (FIG. 4, bar 7), 250 μM of glycine (Gly) (FIG. 4, bar 8), or 250 μM of oxidized glutathione (GSSG) (FIG. 4, bar 9) at 37° C. PNA formation was monitored and recorded after a 4-hour incubation using UV-vis spectroscopy.

[6] = H2S release observed with an H2S electrode at different pH; assay type: physicochemical; conditions: PBS pH 6.0-8.0
Source text: H2S release was also observed by using an H2S electrode, confirming that H2S was released in this system and such H2S release was pH-dependent (FIGS. 3A and 3B). This example therefore establishes that COS/H2S release from compound embodiments of the present disclosure can be pH dependent.

SMILES	half-life at 50 μM ([2]; pH 7.4, pH 7.4 PBS, ln(2)/kobs)	effect on LPS-induced NO2− production [1]	kobs (COS/H2S releasing kinetics) ([2]; pH 7.4 PBS)	krel ([2]; pH 7.4 PBS)	SF7-AM fluorescence (H2S accumulation) (HeLa cells)	also measured
C1COCCN1.COc1ccc(P(=S)(S)N2CCOCC2)cc1 (stereo not drawn) [GYY4137, reference compound]		less pronounced effect				
CC(=O)C(C)COC(=S)Nc1ccc([N+](=O)[O-])cc1 (stereo not drawn) [γ-KetoTCM-2]	25.9 h		0.82 ± 0.02 ×10^−5 s^−1	0.188		
CC(=O)C(C)(C)COC(=S)Nc1ccc([N+](=O)[O-])cc1 [γ-KetoTCM-3]		modest reduction				PNA released in PBS buffer (indicating COS/H2S release) ([2]; PBS pH 7.4, 37° C.): negligible

Further lines, with some results ahead:

half-life at 50 μM ([2]; pH 7.4, pH 7.4 PBS, ln(2)/kobs)	SMILES	effect on LPS-induced NO2− production [1]	kobs (COS/H2S releasing kinetics) ([2]; pH 7.4 PBS)	krel ([2]; pH 7.4 PBS)	SF7-AM fluorescence (H2S accumulation) (HeLa cells)	also measured
13.4 ± 0.3 h	CC(=O)CCOC(=O)Nc1ccc([N+](=O)[O-])cc1 [γ-KetoCM-1]	reduced NO2− levels, although to a lesser extent than γ-KetoTCM-1	1.44 ± 0.03 ×10^−5 s^−1	0.32	failed to provide a SF7-AM signal	
4.26 h	CC(=O)CCOC(=S)Nc1ccc([N+](=O)[O-])cc1 [γ-KetoTCM-1]	significantly reduced	4.52±0.02 ×10^−5 s^−1	1.00	significant increase in SF7-AM fluorescence	half-life at 50 μM ([2]; pH 6, pH 6.0 PBS, ln(2)/kobs): 50.7 ± 0.8 h; half-life at 50 μM ([2]; pH 8, pH 8.0 PBS): 1.53 ± 0.03 h; kobs (COS/H2S releasing kinetics) ([2]; pH 6.0 PBS): 0.380 ± 0.006 ×10^−5 s^−1; krel ([2]; pH 6.0 PBS): 0.084; kobs (COS/H2S releasing kinetics) ([2]; pH 8.0 PBS): 12.6 ± 0.2 ×10^−5 s^−1; krel ([2]; pH 8.0 PBS): 2.79; half-life at 50 μM ([3]; PBS containing BSA and carbonic anhydrase (CA), pH 7.4 PBS containing BSA (5 mg/mL), 37° C.): 0.24 ± 0.01 h; pseudo first-order rate constant kobs from fitting the UV-vis data ([3]; PBS pH 7.4, BSA 5 mg/mL, CA, 37° C.): 8.1±0.3 ×10^−4 s^−1; kobs (COS/H2S releasing kinetics) ([3]; pH 7.4 PBS containing BSA (5 mg/mL), CA, 37° C.): 81.0 ± 3.0 ×10^−5 s^−1; krel ([3]; pH 7.4 PBS containing BSA (5 mg/mL), relative to pH 7.4 without BSA): 18.0; H2S release efficiency ([4]; MB assay, 50 μM, PBS pH 7.4, BSA): 70%; pseudo first-order rate constant kobs from fitting the MB data ([4]; PBS pH 7.4, BSA 5 mg/mL, up to plateau (~60 minutes)): 8.6±0.9 ×10^−4 s^−1; PNA formation in presence of cellular nucleophiles versus background [5]: None of the tested nucleophiles resulted in substantial PNA formation; H2S release by H2S electrode [6]: pH-dependent
